# Measurements reported in US12150995B2, “IRAK degraders and uses thereof” (Kymera Therapeutics, Inc., priority 2020, dated 2024).
# Target: T1, IRAK4 (Homo sapiens, UniProt Q9NWZ3)
# T1 construct: endogenous in cells; host or cells: OCI-LY10
# T1 sequence (Q9NWZ3 1-460): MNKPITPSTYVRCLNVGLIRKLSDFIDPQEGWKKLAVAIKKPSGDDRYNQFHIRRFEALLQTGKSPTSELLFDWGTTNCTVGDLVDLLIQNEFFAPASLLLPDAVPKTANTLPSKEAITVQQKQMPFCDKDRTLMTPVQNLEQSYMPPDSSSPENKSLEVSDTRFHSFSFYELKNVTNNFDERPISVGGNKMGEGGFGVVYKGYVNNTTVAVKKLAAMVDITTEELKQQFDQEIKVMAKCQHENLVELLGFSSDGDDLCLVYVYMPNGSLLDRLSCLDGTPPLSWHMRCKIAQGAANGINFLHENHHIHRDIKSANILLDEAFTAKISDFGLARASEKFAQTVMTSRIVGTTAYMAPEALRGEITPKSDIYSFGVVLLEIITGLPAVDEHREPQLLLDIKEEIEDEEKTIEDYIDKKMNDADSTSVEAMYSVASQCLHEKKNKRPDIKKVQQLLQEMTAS
# Test: IRAK4 MSD Degradation in OCI-LY10
# Type: cell-based
# Conditions: OCI-LY10 cells, Meso Scale Discovery, incubated 4 to 24 hours
# Procedure, shortened: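 OCI-LY10 cells (300,000/well) exposed to an 8-point 1:3 series from a top concentration of 1 to 10 μM for 4 to 24 h at 37 °C. IRAK4 remaining in RIPA lysates quantified by MSD sandwich immunoassay; DC50 from a three-parameter logistic fit.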
row,DC50,SMILES
1,< 0.01 µM,COc1cc2nn([C@H]3CC[C@H](CN4CCC(c5cccc6c5n(C)c(=O)n6C5CCC(=O)NC5=O)CC4)CC3)cc2cc1NC(=O)c1nc(C(F)(F)F)cs1 (stereo partly shown) [I-175]
2,< 0.01 µM,COc1cc(NC(=O)c2cccc(C(F)(F)F)n2)cc2cn([C@H]3CC[C@H](CN4CCC(c5cccc6c5n(C)c(=O)n6C5CCC(=O)NC5=O)CC4)CC3)nc12 (stereo partly shown) [I-176]
3,< 0.01 µM,COc1cc2nn([C@H]3CC[C@H](CN4CCC(c5ccc6c(c5Cl)n(C)c(=O)n6C5CCC(=O)NC5=O)CC4)CC3)cc2cc1NC(=O)c1cccc(C(F)(F)F)n1 (stereo partly shown) [I-177]
4,> 0.2 µM,Cn1c(=O)n(C2CCC(=O)NC2=O)c2ccc(C3CCN(C[C@H]4CC[C@H](n5cc6cc(NC(=O)c7cccc(C(F)(F)F)n7)ncc6n5)CC4)CC3)c(Cl)c21 (stereo partly shown) [I-178]
5,< 0.01 µM,CC(C)Nc1cc(-c2ccc3cc(C#N)cnn23)ncc1C(=O)N[C@H]1CC[C@H](CN(C)C2CCN(c3cccc4c3n(C)c(=O)n4C3CCC(=O)NC3=O)CC2)CC1 (stereo partly shown) [I-179]
6,> 0.2 µM,Cn1c(=O)n(C2CCC(=O)NC2=O)c2ccc(C3CCN(C[C@H]4CC[C@H](n5cc6cc(NC(=O)c7cccc(C(F)(F)F)n7)ccc6n5)CC4)CC3)c(Cl)c21 (stereo partly shown) [I-180]
7,> 0.2 µM,O=C1CCN(c2cncc3cc(C4CCN(C[C@H]5CC[C@H](c6nc7ccc(NC(=O)c8cccc(C(F)(F)F)n8)cc7s6)CC5)CC4)ccc23)C(=O)N1 [I-181]
8,< 0.01 µM,COc1cc2nc([C@H]3CC[C@H](CN4CCC(c5cccc6c5n(C)c(=O)n6C5CCC(=O)NC5=O)CC4)CC3)sc2cc1NC(=O)c1cncc(Cl)c1 (stereo partly shown) [I-182]
9,< 0.01 µM,CC(C)Nc1cc(-c2ccc3cc(C#N)cnn23)ncc1C(=O)N[C@H]1CC[C@H](CN2CCC(c3cccc4c3n(C)c(=O)n4C3CCC(=O)NC3=O)CC2)CC1 (stereo partly shown) [I-183]
10,< 0.01 µM,CC(C)Nc1cc(-c2ccc3cc(C#N)cnn23)ncc1C(=O)N[C@H]1CC[C@H](CN2CCC(c3cccc4c(N5CCC(=O)NC5=O)cncc34)CC2)CC1 [I-184]
11,< 0.01 µM,COc1cc2nc([C@H]3CC[C@H](CN4CCC(c5cccc6c5n(C)c(=O)n6C5CCC(=O)NC5=O)CC4)CC3)sc2cc1NC(=O)c1cncc(C#N)c1 (stereo partly shown) [I-185]
12,< 0.01 µM,CN(C(=O)[C@H]1CC[C@H](n2cc3cc(NC(=O)c4cccc(C(F)(F)F)n4)ccc3n2)CC1)C1CCN(c2cccc3c2n(C)c(=O)n3C2CCC(=O)NC2=O)CC1 (stereo partly shown) [I-186]
13,< 0.01 µM,CN(C(=O)[C@H]1CC[C@H](n2cc3cc(NC(=O)c4cccc(C(F)(F)F)n4)ncc3n2)CC1)C1CCN(c2cccc3c2n(C)c(=O)n3C2CCC(=O)NC2=O)CC1 (stereo partly shown) [I-187]
14,> 0.2 µM,Cn1c(=O)n(C2CCC(=O)NC2=O)c2cccc(C3CCN(C(=O)[C@H]4CC[C@H](n5cc6cc(NC(=O)c7cccc(C(F)(F)F)n7)ncc6n5)CC4)CC3)c21 (stereo partly shown) [I-188]
15,< 0.01 µM,Cn1c(=O)n(C2CCC(=O)NC2=O)c2cccc(C3CCN(C[C@H]4CC[C@H](n5cc6cc(NC(=O)c7cccc(C(F)(F)F)n7)c(C#N)cc6n5)CC4)CC3)c21 (stereo partly shown) [I-189]
16,< 0.01 µM,CC(C)Nc1cc(-n2ccc3cc(C#N)cnc32)ncc1C(=O)N[C@H]1CC[C@H](CN2CCC(c3cccc4c(N5CCC(=O)NC5=O)cncc34)CC2)CC1 [I-190]
17,0.01 to 0.05 µM,COc1cc2nc([C@H]3CC[C@H](CN4CCC(c5cccc6c(N7CCC(=O)NC7=O)cncc56)CC4)CC3)sc2cc1NC(=O)c1cccc(C(F)(F)F)n1 [I-191]
18,> 0.2 µM,COc1cc2nn([C@H]3CC[C@H](CN4CCC(c5cccc6c5n(C)c(=O)n6C5CCC(=O)NC5=O)CC4)CC3)cc2cc1NC(=O)c1cnc(OC)c(Cl)c1 (stereo partly shown) [I-193]
19,> 0.2 µM,COc1cc2nn([C@H]3CC[C@H](CN4CCC(c5cccc6c5n(C)c(=O)n6C5CCC(=O)NC5=O)CC4)CC3)cc2cc1NC(=O)c1ccc(C(F)(F)F)nc1 (stereo partly shown) [I-194]
20,0.01 to 0.05 µM,COc1cc2nn([C@H]3CC[C@H](CN4CCC(c5c(OC)ccc6c5n(C)c(=O)n6C5CCC(=O)NC5=O)CC4)CC3)cc2cc1NC(=O)c1cncc(C#N)c1 (stereo partly shown) [I-195]
21,< 0.01 µM,COc1cc2nn([C@H]3CC[C@H](CN4CCC(c5cccc6c5n(C)c(=O)n6C5CCC(=O)NC5=O)CC4)CC3)cc2cc1NC(=O)c1cncc(Cl)c1 (stereo partly shown) [I-196]
22,< 0.01 µM,CC(C)Nc1cc(-n2ccc3cc(C#N)cnc32)ncc1-c1cn([C@H]2CC[C@H](CN3CCN(c4cccc5c(N6CCC(=O)NC6=O)cncc45)CC3)CC2)nn1 [I-197]
23,< 0.01 µM,CC(C)Nc1cc(-c2ccc3cc(C#N)cnn23)ncc1C(=O)N[C@H]1CC[C@H](CN2CCC(c3ccc4c(N5CCC(=O)NC5=O)cncc4c3)CC2)CC1 [I-198]

row,DC50,SMILES
1,0.01 to 0.05 µM,CC(C)Nc1cc(-c2ccc3cc(C#N)cnn23)ncc1C(=O)N[C@H]1CC[C@H](CN2CCC(OCC#Cc3cccc4c3n(C)c(=O)n4C3CCC(=O)NC3=O)CC2)CC1 (stereo partly shown) [I-199]
2,< 0.01 µM,COc1ccc2c(c1C1CCN(C[C@H]3CC[C@H](n4cc5cc(NC(=O)c6cccc(C#N)n6)ccc5n4)CC3)CC1)n(C)c(=O)n2C1CCC(=O)NC1=O (stereo partly shown) [I-200]
3,> 0.2 µM,O=C1CCN(c2cncc3c(C4CCN(C[C@H]5CC[C@H](c6nc7ccc(NC(=O)c8cccc(C(F)(F)F)n8)cc7s6)CC5)CC4)cccc23)C(=O)N1 [I-201]
4,> 0.2 µM,Cc1c(C2CCN(C[C@H]3CC[C@H](n4cc5cc(NC(=O)c6cccc(C(F)(F)F)n6)ccc5n4)CC3)CC2)ccc2c1n(C)c(=O)n2C1CCC(=O)NC1=O (stereo partly shown) [I-202]
5,0.01 to 0.05 µM,"N#Cc1cnc2c(C(=O)Nc3ccc4nn([C@H]5CC[C@H](CN6CCC(c7cccc8c(N9CCC(=O)NC9=O)cncc78)CC6)CC5)cc4c3)cnn2c1 [I-204, 6-Cyano-N-[2-[4-[[4-[4-(2,4-dioxohexahydropyrimidin-1-yl)-8-isoquinolyl]-1-piperidyl]methyl]cyclohexyl]indazol-5-yl]pyrazolo[1,5-a]pyrimidine-3-carboxamide]"
6,< 0.01 µM,COc1ccc2c(c1C1CCN(C[C@H]3CC[C@H](n4cc5cc(NC(=O)c6cccc(C(F)(F)F)n6)c(C#N)cc5n4)CC3)CC1)n(C)c(=O)n2C1CCC(=O)NC1=O (stereo partly shown) [I-205]
7,< 0.01 µM,COc1cc2nn([C@H]3CC[C@H](CN4CC5(CCN(c6cccc7c6n(C)c(=O)n7C6CCC(=O)NC6=O)CC5)C4)CC3)cc2cc1NC(=O)c1cncc(C#N)c1 (stereo partly shown) [I-206]
8,< 0.01 µM,COc1cc2nn([C@H]3CC[C@H](CN4CCC5(CC4)CCN(c4cccc6c4n(C)c(=O)n6C4CCC(=O)NC4=O)CC5)CC3)cc2cc1NC(=O)c1cncc(C#N)c1 (stereo partly shown) [I-207]
9,< 0.01 µM,COc1cc2nn([C@H]3CC[C@H](CN4CCN(c5ccc6c(N7CCC(=O)NC7=O)cncc6c5)CC4)CC3)cc2cc1NC(=O)c1cccc(C(F)(F)F)n1 [I-208]
10,< 0.01 µM,Cn1c(=O)n(C2CCC(=O)NC2=O)c2cccc(N3CCN(C[C@H]4CC[C@H](n5cc6cc(NC(=O)c7cccc(C(F)(F)F)n7)ccc6n5)CC4)CC3)c21 (stereo partly shown) [I-209]
11,> 0.2 µM,Cc1c(C2CCN(C[C@H]3CC[C@H](n4cc5cc(NC(=O)c6cccc(C(F)(F)F)n6)ncc5n4)CC3)CC2)ccc2c1n(C)c(=O)n2C1CCC(=O)NC1=O (stereo partly shown) [I-210]
12,< 0.01 µM,COc1cc2nn([C@H]3CC[C@H](CN4CCN(c5cccc6c(N7CCC(=O)NC7=O)cncc56)CC4)CC3)cc2cc1NC(=O)c1cccc(C(F)(F)F)n1 [I-211]
13,> 0.2 µM,Cn1c(=O)n(C2CCC(=O)NC2=O)c2cccc(C3CCN(C[C@H]4CC[C@H](n5cc6cc(NC(=O)c7cncc(C#N)c7)c(N7C[C@H]8C[C@@H]7CO8)cc6n5)CC4)CC3)c21 (stereo partly shown) [I-212]
14,< 0.01 µM,N#Cc1cc2nn([C@H]3CC[C@H](CN4CCC(c5cccc6c(N7CCC(=O)NC7=O)cncc56)CC4)CC3)cc2cc1NC(=O)c1cccc(C(F)(F)F)n1 [I-213]
15,< 0.01 µM,Cn1c(=O)n(C2CCC(=O)NC2=O)c2cccc(C3CCN(C[C@H]4CC[C@H](n5cc6cc(NC(=O)c7cccc(C(F)(F)F)c7F)ccc6n5)CC4)CC3)c21 (stereo partly shown) [I-214]
16,< 0.01 µM,Cn1c(=O)n(C2CCC(=O)NC2=O)c2cccc(C3CCN(C[C@H]4CC[C@H](n5cc6cc(NC(=O)c7nc(C(F)(F)F)cs7)ccc6n5)CC4)CC3)c21 (stereo partly shown) [I-215]
17,< 0.01 µM,COc1cc2nn([C@H]3CC[C@H](CN4CCN(c5cccc6c5n(C)c(=O)n6C5CCC(=O)NC5=O)CC4)CC3)cc2cc1NC(=O)c1cccc(C(F)(F)F)c1F (stereo partly shown) [I-216]
18,> 0.2 µM,CN(C[C@H]1CC[C@H](n2cc3cc(NC(=O)c4cncc(C#N)c4)c(N4C[C@H]5C[C@@H]4CO5)cc3n2)CC1)C1CCN(c2cccc3c2n(C)c(=O)n3C2CCC(=O)NC2=O)CC1 (stereo partly shown) [I-217]
19,< 0.01 µM,COc1cc(NC(=O)c2cccc(C(F)(F)F)n2)cc2cn([C@H]3CC[C@H](CN4CCN(c5cccc6c5n(C)c(=O)n6C5CCC(=O)NC5=O)CC4)CC3)nc12 (stereo partly shown) [I-218]
20,< 0.01 µM,COc1cc2nn([C@H]3CC[C@H](CN4C5CCC4CN(c4cccc6c(N7CCC(=O)NC7=O)cncc46)C5)CC3)cc2cc1NC(=O)c1cccc(C(F)(F)F)n1 [I-219]
21,< 0.01 µM,COc1cc2nn([C@H]3CC[C@H](CN4C5CC4CN(c4cccc6c(N7CCC(=O)NC7=O)cncc46)C5)CC3)cc2cc1NC(=O)c1cccc(C(F)(F)F)n1 [I-220]
22,< 0.01 µM,COc1cc(NC(=O)c2cccc(C(F)(F)F)n2)cc2cn([C@H]3CC[C@H](CN4CCC(c5cccc6c(N7CCC(=O)NC7=O)cncc56)CC4)CC3)nc12 [I-221]
23,< 0.01 µM,COc1cc(NC(=O)c2cccc(C(F)(F)F)n2)cc2cn([C@H]3CC[C@H](CN4CCN(c5cccc6c(N7CCC(=O)NC7=O)cncc56)CC4)CC3)nc12 [I-222]
